In PubChem BioAssay AID276 (DTP/NCI, 2004) one finds T/C data, which are given here for 16 compounds.

Each structure is given as a SMILES string. Where “and” joins values, the source holds several entries; their conditions need not be identical. Identical values can stand only once. Toxic doses and inconclusive results are not listed.

This experiment deals with B6C3F1 mice, Lewis lung carcinoma iv, survival T/C. The experiment in a line: NCI In Vivo Anticancer Drug Screen. Data for tumor model Lewis Lung Carcinoma (intravenous) in B6C3F1 mice. The note with it: endpoint: median survival time, higher = longer survival. In outline:
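Read-out is survival, expressed as the treated-group measurement over the vehicle control-group measurement. Animals bore a transplantable tumor and were given compound.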

Where [1] appears, read: dose: 25.0 mg/kg/injection, schedule: Q01DX009 (ip), vehicle: saline with Tween-80.
[2] abbreviates: dose: 50.0 mg/kg/injection, schedule: Q01DX009 (ip), vehicle: saline with Tween-80.
[3] abbreviates: dose: 12.5 mg/kg/injection, schedule: Q01DX009 (ip), vehicle: Klucel (hydroxypropylcellulose) (HPC).

For the compound `COC(=O)C12OCC34C(CC5C(C)C6=CC(=O)OC6=CC5(C)C3C(O)C1O)OC(=O)C(OC(C)=O)C24` (stereo not given), the T/C reads like this: (dose: 2.0 mg/kg/injection, schedule: Q01DX009 (ip), vehicle: saline + alcohol) 102 % of control; (dose: 4.0 mg/kg/injection, schedule: Q01DX009 (ip), vehicle: saline + alcohol) 97 % of control; (dose: 8.0 mg/kg/injection, schedule: Q01DX009 (ip), vehicle: saline + alcohol) 96 % of control; (dose: 16.0 mg/kg/injection, schedule: Q01DX009 (ip), vehicle: saline + alcohol) 98 % of control; (dose: 125.0 micrograms/kg/injection, schedule: Q01DX009 (ip), vehicle: saline + alcohol) 114 % of control; (dose: 250.0 micrograms/kg/injection, schedule: Q01DX009 (ip), vehicle: saline + alcohol) 118 % of control. Also, the T/C was 109 % of control (dose: 500.0 micrograms/kg/injection, schedule: Q01DX009 (ip), vehicle: saline + alcohol); 106 % of control (dose: 1000.0 micrograms/kg/injection, schedule: Q01DX009 (ip), vehicle: saline + alcohol); 112 % of control (dose: 2000.0 micrograms/kg/injection, schedule: Q01DX009 (ip), vehicle: saline + alcohol).

As for `CN(C)CCN1C(=O)c2cccc3cc([N+](=O)[O-])cc(c23)C1=O`, the T/C was 94 % of control (dose: 0.75 mg/kg/injection, schedule: Q01DX009 (ip), vehicle: saline with Tween-80); 93 % of control (dose: 1.5 mg/kg/injection, schedule: Q01DX009 (ip), vehicle: saline with Tween-80); 101 % of control (dose: 3.0 mg/kg/injection, schedule: Q01DX009 (ip), vehicle: saline with Tween-80); 95 % of control (dose: 6.0 mg/kg/injection, schedule: Q01DX009 (ip), vehicle: saline with Tween-80).

For the compound `O=NN(CCF)C(=O)NC1C(O)CCCC1O` (stereo not given), the T/C was 116 % of control (dose: 2.5 mg/kg/injection, schedule: Q01DX009 (ip), vehicle: saline); 312 % of control (dose: 10.0 mg/kg/injection, schedule: Q01DX009 (ip), vehicle: saline); 104 % of control (dose: 20.0 mg/kg/injection, schedule: Q01DX009 (ip), vehicle: saline).

Consider `Cc1ccoc1`, for which the T/C runs as follows: (dose: 8.3 mg/kg/injection, schedule: Q03HX027 (ip), vehicle: saline with Tween-80) 107 % of control; (dose: 16.6 mg/kg/injection, schedule: Q03HX027 (ip), vehicle: saline with Tween-80) 112 % of control; (dose: 33.3 mg/kg/injection, schedule: Q03HX027 (ip), vehicle: saline with Tween-80) 100 % of control; (dose: 66.6 mg/kg/injection, schedule: Q03HX027 (ip), vehicle: saline with Tween-80) 102 % of control.

As for `C[C@@](O)(/C=C/[C@H]1CC=CC(=O)O1)[C@@H](C[C@@H](O)\C=C/C=C\C=C\CO)OP(=O)(O)O`, the T/C is 93 % of control (dose: 1.56 mg/kg/injection, schedule: Q01DX009 (ip), vehicle: other); 91 % of control and 93 % of control and 100 % of control (dose: 3.12 mg/kg/injection, schedule: Q01DX009 (ip), vehicle: other); 92 % of control and 95 % of control and 98 % of control (dose: 6.25 mg/kg/injection, schedule: Q01DX009 (ip), vehicle: other); 100 % of control and 103 % of control (2×) (dose: 12.5 mg/kg/injection, schedule: Q01DX009 (ip), vehicle: other); 114 % of control (dose: 25.0 mg/kg/injection, schedule: Q01DX009 (ip), vehicle: other).

On to `O=NN(CCCl)C(=O)NC1CCC(CC2CCC(NC(=O)N(CCCl)N=O)CC2)CC1` (stereo not given), for which the T/C under setting [1] is 190 % of control and the T/C under setting [2] was 165 % of control.

Consider `CCCCCC[Se][Se]CCCCCC`, for which the T/C by setting is: (dose: 1.56 mg/kg/injection, schedule: Q01DX009 (ip), vehicle: Klucel (hydroxypropylcellulose) (HPC)) 97 % of control; (dose: 3.12 mg/kg/injection, schedule: Q01DX009 (ip), vehicle: Klucel (hydroxypropylcellulose) (HPC)) 105 % of control; (dose: 6.25 mg/kg/injection, schedule: Q01DX009 (ip), vehicle: Klucel (hydroxypropylcellulose) (HPC)) 100 % of control; under setting [3], 95 % of control.

Consider `CO[C@@]12[C@@H]3N[C@@H]3CN1C1=C(C(=O)C(NCC3CCCO3)=C(C)C1=O)[C@@H]2COC(N)=O` (stereo not given in full), for which the T/C (dose: 1.5 mg/kg/injection, schedule: Q01DX009 (ip), vehicle: distilled water + Tween-80) is 104 % of control; the T/C (dose: 3.0 mg/kg/injection, schedule: Q01DX009 (ip), vehicle: distilled water + Tween-80) is 104 % of control; the T/C (dose: 6.0 mg/kg/injection, schedule: Q01DX009 (ip), vehicle: distilled water + Tween-80) is 116 % of control.

`C[CH2][Sn]([CH2]C)([O]S(C)(=O)=O)[O]S(C)(=O)=O`: the T/C (dose: 0.09 mg/kg/injection, schedule: Q01DX009 (ip), vehicle: saline) is 108 % of control; the T/C (dose: 0.19 mg/kg/injection, schedule: Q01DX009 (ip), vehicle: saline) is 97 % of control; the T/C (dose: 0.39 mg/kg/injection, schedule: Q01DX009 (ip), vehicle: saline) was 99 % of control; the T/C (dose: 0.79 mg/kg/injection, schedule: Q01DX009 (ip), vehicle: saline) was 109 % of control; the T/C (dose: 1.56 mg/kg/injection, schedule: Q01DX009 (ip), vehicle: saline) is 93 % of control and 102 % of control; the T/C (dose: 3.12 mg/kg/injection, schedule: Q01DX009 (ip), vehicle: saline) is 91 % of control and 87 % of control.

As for `CC1=C(C)C(=O)O[C@@H]([C@](C)(O)[C@]2(O)CC[C@@]3(O)[C@@H]4C[C@H]5O[C@]56[C@@H](O)C=CC(=O)[C@]6(C)[C@H]4CC[C@]23C)C1`, the T/C is 97 % of control (dose: 1.0 mg/kg/injection, schedule: Q01DX009 (ip), vehicle: saline); 100 % of control and 101 % of control (dose: 2.0 mg/kg/injection, schedule: Q01DX009 (ip), vehicle: saline); 101 % of control and 104 % of control (dose: 4.0 mg/kg/injection, schedule: Q01DX009 (ip), vehicle: saline); 94 % of control and 101 % of control (dose: 8.0 mg/kg/injection, schedule: Q01DX009 (ip), vehicle: saline); 94 % of control (dose: 16.0 mg/kg/injection, schedule: Q01DX009 (ip), vehicle: saline); 92 % of control (dose: 32.0 mg/kg/injection, schedule: Q01DX009 (ip), vehicle: saline).

Turning to `NC(=S)c1ncn(C2OC(CO)C(O)C2O)c1N` (stereo not given), the T/C runs as follows: (dose: 12.5 mg/kg/injection, schedule: Q01DX009 (ip), vehicle: suspension in saline) 100 % of control; (dose: 25.0 mg/kg/injection, schedule: Q01DX009 (ip), vehicle: suspension in saline) 99 % of control; (dose: 50.0 mg/kg/injection, schedule: Q01DX009 (ip), vehicle: suspension in saline) 106 % of control; (dose: 100.0 mg/kg/injection, schedule: Q01DX009 (ip), vehicle: suspension in saline) 110 % of control; (dose: 200.0 mg/kg/injection, schedule: Q01DX009 (ip), vehicle: suspension in saline) 116 % of control.

Regarding `O=C1SC(c2ccccc2)=S=C1c1ccccc1`, the T/C is 100 % of control under setting [1]; 93 % of control under setting [2]; 95 % of control (dose: 100.0 mg/kg/injection, schedule: Q01DX009 (ip), vehicle: saline with Tween-80); 104 % of control (dose: 200.0 mg/kg/injection, schedule: Q01DX009 (ip), vehicle: saline with Tween-80); 108 % of control (dose: 400.0 mg/kg/injection, schedule: Q01DX009 (ip), vehicle: saline with Tween-80).

Take `CC1(C)COCN1COCCOCN1COCC1(C)C`: the T/C reads like this: (dose: 6.25 mg/kg/injection, schedule: Q01DX009 (ip), vehicle: saline) 103 % of control; (dose: 12.5 mg/kg/injection, schedule: Q01DX009 (ip), vehicle: saline) 108 % of control; (dose: 25.0 mg/kg/injection, schedule: Q01DX009 (ip), vehicle: saline) 97 % of control; (dose: 50.0 mg/kg/injection, schedule: Q01DX009 (ip), vehicle: saline) 104 % of control; (dose: 100.0 mg/kg/injection, schedule: Q01DX009 (ip), vehicle: saline) 107 % of control.

For `CN(C)/N=N/c1nc[nH]c1C(N)=O`, under setting [3], the T/C was 229 % of control.

In the case of `ClC1=C(Cl)C(Cl)=C(Cl)C1=Cc1ccccc1`, the T/C is, setting by setting: (dose: 3.12 mg/kg/injection, schedule: Q01DX009 (ip), vehicle: saline with Tween-80) 94 % of control and 101 % of control; (dose: 6.25 mg/kg/injection, schedule: Q01DX009 (ip), vehicle: saline with Tween-80) 98 % of control and 108 % of control; (dose: 12.5 mg/kg/injection, schedule: Q01DX009 (ip), vehicle: saline with Tween-80) 98 % of control; under setting [1], 97 % of control; under setting [2], 105 % of control.

As to `Cn1cnc([N+](=O)[O-])c1Sc1nc(N)nc2c1ncn2C1OC(CO)C(O)C1O` (stereo not given), the T/C is 105 % of control (dose: 1.56 mg/kg/injection, schedule: Q01DX009 (ip), vehicle: suspension in saline); 100 % of control (dose: 3.12 mg/kg/injection, schedule: Q01DX009 (ip), vehicle: suspension in saline); 105 % of control (dose: 6.25 mg/kg/injection, schedule: Q01DX009 (ip), vehicle: suspension in saline).
